“Also recorded” adds a separate entry of the source.
Experiments:
[1] = Partitioning of lyso-CTH in extraction from plasma samples; assay type: physicochemical
Description: An optimal extraction procedure for lyso-CTH from plasma samples was established. A double extraction was carried out, first a Bligh and Dyer extraction followed by butanol extraction.

alpha-galactosidase A = biological target: T1, alpha-galactosidase A (Homo sapiens, UniProt P06280); assay: Inhibition of alpha-galactosidase A by lyso-CTH; assay type: biochemical
T1 sequence (P06280 32-429): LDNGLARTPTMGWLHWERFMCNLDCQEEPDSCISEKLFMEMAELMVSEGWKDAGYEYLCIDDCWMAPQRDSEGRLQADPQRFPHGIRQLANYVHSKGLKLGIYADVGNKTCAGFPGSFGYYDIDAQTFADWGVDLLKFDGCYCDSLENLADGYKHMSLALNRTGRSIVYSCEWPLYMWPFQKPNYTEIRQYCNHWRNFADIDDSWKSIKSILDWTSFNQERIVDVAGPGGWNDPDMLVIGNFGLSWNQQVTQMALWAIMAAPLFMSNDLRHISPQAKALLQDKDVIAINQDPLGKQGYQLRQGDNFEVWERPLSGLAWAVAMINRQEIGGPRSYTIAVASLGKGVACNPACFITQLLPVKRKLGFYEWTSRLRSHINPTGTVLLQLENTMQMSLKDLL

alpha-galactosidase B = biological target: T2, alpha-galactosidase B (Homo sapiens, UniProt P17050); assay: Inhibition of alpha-galactosidase B by lyso-CTH; assay type: biochemical
T2 sequence (P17050 18-411): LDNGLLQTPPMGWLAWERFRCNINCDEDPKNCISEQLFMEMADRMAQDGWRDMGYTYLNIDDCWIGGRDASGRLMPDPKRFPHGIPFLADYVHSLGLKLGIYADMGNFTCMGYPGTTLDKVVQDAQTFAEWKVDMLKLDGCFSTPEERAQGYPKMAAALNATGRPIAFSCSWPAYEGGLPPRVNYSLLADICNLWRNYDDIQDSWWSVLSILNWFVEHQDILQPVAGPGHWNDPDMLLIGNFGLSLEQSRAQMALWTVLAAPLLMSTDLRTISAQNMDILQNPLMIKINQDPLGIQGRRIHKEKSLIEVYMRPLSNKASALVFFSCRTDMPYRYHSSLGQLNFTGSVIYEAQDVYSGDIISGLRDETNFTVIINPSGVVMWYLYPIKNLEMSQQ

SMC-41 cell line = assay: In vitro toxicity: 3H thymidine incorporation and proliferation in SMC-41 cell line; assay type: cell-based; settings: lyso-CTH 0.065-0.65 μM, as found in plasma of Fabry patients
Description: The toxic effect of lyso-CTH was determined in vitro in SMC-41 cell line. ^3H thymidine incorporation (per 24 h) was determined as a function of lyso-CTH concentration.

## CCCCCCCCCCCCC/C=C/[C@@H](O)[C@@H](N)CO[C@@H]1O[C@H](CO)[C@@H](O[C@@H]2O[C@H](CO)[C@H](O[C@H]3O[C@H](CO)[C@H](O)[C@H](O)[C@H]3O)[C@H](O)[C@H]2O)[C@H](O)[C@H]1O [lyso-CTH, lyso-ceramide trihexosamide]
[1]; Bligh and Dyer extraction
  Partitioning of lyso-CTH (% of total), lower phase: 10 % of total
  Partitioning of lyso-CTH (% of total), upper phase: 90 % of total
[1]; butanol/water extraction
  Partitioning of lyso-CTH (% of total), lower phase: 2 % of total
  Partitioning of lyso-CTH (% of total), upper phase: 99 % of total
alpha-galactosidase A
  inhibition of alpha-galactosidase A: potent inhibitor; also recorded: inhibits
alpha-galactosidase B
  inhibition of alpha-galactosidase B: potent inhibitor; also recorded: inhibits
SMC-41 cell line
  3H thymidine incorporation (per 24 h): increased isotope incorporation
  smooth muscle cell proliferation: promote in vitro smooth muscle cell proliferation; also recorded: increased proliferation

Source: patent publication US20100047844A1, “DIAGNOSTIC MARKER FOR FABRY DISEASE” (Academisch Ziekenhuis bij de Universiteit van Amsterdam, priority 2006, published 2010)
